Earlier results, collected in US9533037B2, “Methods for designing and preparing vaccines comprising directed sequence polymer compositions via the directed expansion of epitopes” (Declion Holdings LLC, priority 2007, dated 2017).

Test system: MBP83-99
Conditions: limited human trials

**Q.** What does the source list for AKPVVHLFANIVTPRTP?
**A.** immune reactivity against the peptide: long term immune reactivity; clinical efficacy by evaluation using MRI (multiple sclerosis): clinically ineffective
